# PMC9251005, “CT295 Is Chlamydia trachomatis’ Phosphoglucomutase and a Type 3 Secretion Substrate” (Frontiers in Cellular and Infection Microbiology, 2022)
# Tests used:
# Format in all cases: biochemical
# CpsG-HIS [1] = molecular target: T1, CpsG-HIS (Escherichia coli, UniProt P24175); experiment: HPAEC-PAD product analysis with and without cofactor; conditions: 0.2 mg/ml Glc1,6diP, 0.66 mg/ml Glc1P, 10 mM Tris-HCl, 0.5 mM MgSO4, pH 8.0, 37°C, 20 min
# T1 construct: gene manB; C-terminal polyhistidine tag, E. coli BL21(DE3), Ni-NTA and Superdex 200
# T1 sequence (P24175 1-456): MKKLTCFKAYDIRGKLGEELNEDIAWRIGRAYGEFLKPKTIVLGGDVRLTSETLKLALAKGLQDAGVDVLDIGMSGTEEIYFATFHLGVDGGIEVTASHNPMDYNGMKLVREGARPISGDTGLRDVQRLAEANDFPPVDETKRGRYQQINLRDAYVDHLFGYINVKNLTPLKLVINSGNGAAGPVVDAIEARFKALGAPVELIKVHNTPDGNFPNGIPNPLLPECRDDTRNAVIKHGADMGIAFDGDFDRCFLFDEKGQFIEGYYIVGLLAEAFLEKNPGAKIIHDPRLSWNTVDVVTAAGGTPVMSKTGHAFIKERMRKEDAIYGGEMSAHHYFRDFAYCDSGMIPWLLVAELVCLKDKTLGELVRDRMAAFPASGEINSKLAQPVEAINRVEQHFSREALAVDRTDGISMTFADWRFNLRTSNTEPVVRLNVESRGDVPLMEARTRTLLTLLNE
# CT815-HIS = molecular target: T2, CT815-HIS (Chlamydia trachomatis, UniProt O84822); experiment: HPAEC-PAD product analysis; conditions: 0.66 mg/ml Glc1P, 0.2 mg/ml Glc1,6diP, 0.1 mg/ml enzyme, 10 mM Tris-HCl, 0.5 mM MgSO4, pH 8.0, 37°C, 20 min
# T2 construct: gene glmM; pET28a, C-terminal polyhistidine tag, E. coli BL21(DE3), Ni-NTA and Superdex 200
# T2 sequence (O84822 whole entry): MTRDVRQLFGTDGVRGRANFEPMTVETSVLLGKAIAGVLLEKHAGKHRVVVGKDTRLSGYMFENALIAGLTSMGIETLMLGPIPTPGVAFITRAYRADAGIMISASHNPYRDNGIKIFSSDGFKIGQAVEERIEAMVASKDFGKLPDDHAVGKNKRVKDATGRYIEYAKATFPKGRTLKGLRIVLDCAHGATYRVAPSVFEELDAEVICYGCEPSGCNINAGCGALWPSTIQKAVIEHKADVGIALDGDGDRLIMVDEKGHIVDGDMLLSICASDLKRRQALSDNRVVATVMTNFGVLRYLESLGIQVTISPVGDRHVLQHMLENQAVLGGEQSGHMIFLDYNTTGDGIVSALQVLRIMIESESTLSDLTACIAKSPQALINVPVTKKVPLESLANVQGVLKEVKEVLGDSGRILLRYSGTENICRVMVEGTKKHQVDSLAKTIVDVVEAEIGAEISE
# CCA00344-HIS = molecular target: T3, CCA00344-HIS (Chlamydia caviae, UniProt Q823R2); experiment: HPAEC-PAD product analysis; conditions: 0.2 mg/ml Glc1,6diP, 0.1 mg/ml enzyme, 10 mM Tris-HCl, 0.5 mM MgSO4, pH 8.0, 37°C, 20 min
# T3 construct: gene CCA_00344; C-terminal polyhistidine tag, E. coli BL21(DE3), Ni-NTA and Superdex 200
# T3 sequence (Q823R2 entry or part of it): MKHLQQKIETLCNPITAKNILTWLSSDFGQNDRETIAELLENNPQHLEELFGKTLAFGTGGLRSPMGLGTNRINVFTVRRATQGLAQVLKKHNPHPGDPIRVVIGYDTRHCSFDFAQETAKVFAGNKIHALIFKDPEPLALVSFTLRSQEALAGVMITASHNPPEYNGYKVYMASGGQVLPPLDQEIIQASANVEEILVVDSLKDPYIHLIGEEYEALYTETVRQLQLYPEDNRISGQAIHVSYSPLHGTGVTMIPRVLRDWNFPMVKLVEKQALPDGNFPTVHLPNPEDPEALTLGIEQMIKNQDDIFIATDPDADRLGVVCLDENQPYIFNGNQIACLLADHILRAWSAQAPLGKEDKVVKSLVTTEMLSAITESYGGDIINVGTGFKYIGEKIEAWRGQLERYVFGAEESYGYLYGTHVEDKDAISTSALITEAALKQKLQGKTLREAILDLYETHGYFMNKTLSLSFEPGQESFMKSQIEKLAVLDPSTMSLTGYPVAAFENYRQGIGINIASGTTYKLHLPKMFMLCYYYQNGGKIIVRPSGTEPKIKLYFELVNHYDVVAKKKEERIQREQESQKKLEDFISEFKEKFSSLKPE
# Flag-CT295 = molecular target: T4, Flag-CT295 (Chlamydia trachomatis, UniProt O84297); experiment: HPAEC-PAD product analysis, enzyme on anti-Flag beads; conditions: 0.66 mg/ml Glc1P, no Glc1,6diP, 10 mM Tris-HCl, 0.5 mM MgSO4, pH 8.0, 37°C, 20 min; immobilised enzyme
# T4 construct: gene mrsA_1; N-terminal Flag tag, expressed in HEK293T, immobilised on anti-Flag beads
# T4 sequence (O84297 entry or part of it): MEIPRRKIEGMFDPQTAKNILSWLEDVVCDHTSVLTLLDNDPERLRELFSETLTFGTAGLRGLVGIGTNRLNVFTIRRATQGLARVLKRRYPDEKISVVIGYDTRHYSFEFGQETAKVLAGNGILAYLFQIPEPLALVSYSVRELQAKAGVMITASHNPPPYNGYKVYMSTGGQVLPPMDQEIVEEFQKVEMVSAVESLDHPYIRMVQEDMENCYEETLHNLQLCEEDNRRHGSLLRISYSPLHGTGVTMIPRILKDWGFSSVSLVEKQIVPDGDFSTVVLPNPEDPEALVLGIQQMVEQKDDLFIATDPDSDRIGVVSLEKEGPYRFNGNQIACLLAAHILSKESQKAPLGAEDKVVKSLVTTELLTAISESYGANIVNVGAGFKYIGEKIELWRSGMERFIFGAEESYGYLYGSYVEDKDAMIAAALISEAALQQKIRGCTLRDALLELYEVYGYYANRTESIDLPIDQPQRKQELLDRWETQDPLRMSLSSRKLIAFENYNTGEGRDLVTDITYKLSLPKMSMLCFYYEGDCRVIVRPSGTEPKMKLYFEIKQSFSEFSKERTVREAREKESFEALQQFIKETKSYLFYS
# CpsG-HIS [2] = molecular target: T1, CpsG-HIS; experiment: HPAEC-PAD product analysis; conditions: 0.66 mg/ml Glc1P, 0.2 mg/ml Glc1,6diP, 0.1 mg/ml enzyme, 10 mM Tris-HCl, 0.5 mM MgSO4, pH 8.0, 37°C, 20 min
smiles,measurement,setting,value
"O=P(O)(O)OC[C@H]1O[C@H](OP(=O)(O)O)[C@H](O)[C@@H](O)[C@@H]1O [Glc1,6diP]",HPAEC-PAD product analysis with and without cofactor,CpsG-HIS [1],"CpsG-HIS required the presence of Glc1,6diP to convert Glc1P into Glc6P"
O=P(O)(O)O[C@H]1O[C@H](CO)[C@@H](O)[C@H](O)[C@H]1O [Glc1P],HPAEC-PAD product analysis,CT815-HIS,only low levels of Glc6P were detected in the presence of CT815-HIS
same,HPAEC-PAD product analysis,CCA00344-HIS; 0.66 mg/ml Glc1P,Incubation of Glc1P in the presence of CCA00344-HIS led to its full conversion into Glc6P
same,"HPAEC-PAD product analysis, enzyme on anti-Flag beads",Flag-CT295,These data demonstrated the ability of CT295 to convert Glc1P into Glc6P
same,HPAEC-PAD product analysis,CpsG-HIS [2],"CpsG-HIS required the presence of Glc1,6diP to convert Glc1P into Glc6P"
O=P(O)(O)OC[C@H]1OC(O)[C@H](O)[C@@H](O)[C@@H]1O (stereo partly drawn) [Glc6P],HPAEC-PAD product analysis,"CCA00344-HIS; 0.33 mg/ml Glc6P, reverse reaction",very low amounts of Glc1P were detected after incubation with CCA00344-HIS or CpsG-HIS
